We go through 17 compounds from patent US20240415819A1, “MACROCYCLIC COMPOUNDS AS PROTEASOME SUBUNIT BETA TYPE-5 INHIBITORS” (Lead Discovery Center GmbH, priority 2021, published 2024).

Where two headings read alike, the source gives them in different places. A value given as a limit tells only on which side of the number the result lay.

The target in test [1] is T1, β5 subunit of the human constitutive proteasome (CPS) (Homo sapiens, UniProt P28074).
T1 construct: purchased Boston Biochem E-360
Put plainly: β5 inhibition assay, human constitutive proteasome (Suc-LLVY-AMC). The format is biochemical. Conditions: IC50 class, Suc-LLVY-AMC substrate. The protocol:
The enzymatic activity of the β5 subunit of the human constitutive proteasome (CPS) is analyzed. In another assay, which differs from the assay of the human constitutive proteasome only in using the human immunoproteasome (IPS) the enzymatic activity of the β5 subunit of the human immunoproteasome (IPS) is analyzed. […] Inhibition is indicated as IC50 [nM] (“-”=not measured).

The target in test [2] is T2, β5 subunit of the human immunoproteasome (IPS) (Homo sapiens, UniProt P28062).
T2 construct: purchased Boston Biochem E-370
Put plainly: β5 inhibition assay, human immunoproteasome (Suc-LLVY-AMC). Conditions: IC50 class, Suc-LLVY-AMC substrate. The class given is biochemical. Summed up:
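Human immunoproteasome (1 nM final) was preincubated 10 min at RT with compound in 100 mM HEPES pH 7.5, 50 mM NaCl, 0.02% SDS, 1 mM DTT. Suc-LLVY-AMC (22.6 μM final) was then added for 4 h at RT in the dark. After stopping with 1 μM bortezomib, AMC fluorescence was read (ex 355/em 460 nm).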

Test [3] concerns HT-29 cells. As to the kind of experiment: CellTiter-Glo luminescent cell viability assay with HT-29 cells (72h incubation). The class given is cell-based, human. Conditions: Homo sapiens, HT-29, HT29 cells, read-out: CTG HT29. Summed up: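 400 cells per well in DMEM/10% FCS were dosed after 24 h and kept 72 h at 37 °C, 5% CO2. ATP-based luminescence (CellTiter-Glo) normalized to DMSO and 10 μM staurosporine controls; IC50 by dose-response fit.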
On the technique in general: In ATP-based viability assays light output follows the ATP content of the culture.

In test [4] the test system is A549 (human lung carcinoma cell line). Put plainly: Glo assay of A549 cells (Table 3; ProteasomeGlo plating scheme). The format is cell-based. Conditions: Homo sapiens. The method in brief:
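Cells plated in 384 wells; compound, DMSO, staurosporine transferred by ECHO; 105 min, 37° C., 5% CO2; Proteasome-Glo (Suc-LLVY-Glo) reagent added; dark 10-15 min; luminescence; IC50 nM.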

Where [5] appears, read: A549 cells, read-out: PGLo A549.

Turning to `CC(=O)N[C@H]1CC(=O)N2CCCC(CCOc3ccc(C)c(c3)CNC(=O)C(Cn3c(=O)oc4ccccc43)NC1=O)C2` (stereo partly drawn) [Compound 555, N-((12S)-5^4-methyl-8,11,14-trioxo-9-((2-oxobenzo[d]oxazol-3(2H)-yl)methyl)-4-oxa-7,10-diaza-1(3,1)-piperidina-5(1,3)-benzenacyclotetradecaphane-12-yl)acetamide], the IC50 in test [1], in test [2], in test [3] and in test [4] (setting [5]) was below 100 nM throughout.

For the compound `CC(=O)N[C@H]1CC(=O)N2CCCC(CCOc3ccc(C)c(c3)CNC(=O)C(CCc3nccs3)NC1=O)C2` (stereo partly drawn) [Compound 563, N-((12S)-5^4-methyl-8,11,14-trioxo-9-(2-(thiazol-2-yl)ethyl)-4-oxa-7,10-diaza-1(3,1)-piperidina-5(1,3)-benzenacyclotetradecaphane-12-yl)acetamide], the IC50 in test [1], in test [2], in test [3] and in test [4] (setting [5]) was below 100 nM each time.

As for `Cc1ccc2cc1CNC(=O)[C@H](CCc1ccccc1)NC(=O)[C@@H](NC(=O)c1ccc3cc(N)ccc3c1)CC(=O)N1CCCC(CCO2)C1` (stereo partly drawn) [Compound 339, 6-amino-N-((9S,12S)-5^4-methyl-8,11,14-trioxo-9-phenethyl-4-oxa-7,10-diaza-1(3,1)-piperidina-5(1,3)-benzenacyclotetradecaphane-12-yl)-2-naphthamide], the IC50 is below 100 nM in test [1], below 100 nM in test [2], below 100 nM in test [3] and 100 to 500 nM in test [4] (setting [5]).

For the compound `CC(=O)N[C@H]1CC(=O)N2CCCC(CCOc3ccc(C)c(c3)CNC(=O)C(CCc3ccncc3)NC1=O)C2` (stereo partly drawn) [Compound 551, N-((12S)-5^4-methyl-8,11,14-trioxo-9-(2-(pyridin-4-yl)ethyl)-4-oxa-7,10-diaza-1(3,1)-piperidina-5(1,3)-benzenacyclotetradecaphane-12-yl)acetamide], the IC50 in test [1], in test [2], in test [3] and in test [4] (setting [5]) was below 100 nM throughout.

For `CC(=O)N[C@H]1CC(=O)N2CCCC(CCOc3ccc(C)c(c3)CNC(=O)C(Cc3ccccc3)NC1=O)C2` (stereo partly drawn) [Compound 558, N-((12S)-9-benzyl-5^4-methyl-8,11,14-trioxo-4-oxa-7,10-diaza-1(3,1)-piperidina-5(1,3)-benzenacyclotetradecaphane-12-yl)acetamide], the IC50 in test [1] was below 100 nM; in test [2], below 100 nM; in test [3] it was below 100 nM; in test [4] (setting [5]), 100 to 500 nM.

With `Cc1ccc2cc1CNC(=O)[C@H](CCc1ccccc1)NC(=O)[C@@H](NC(=O)OCc1ccccc1)CCC(=O)N1CCC(CO2)C1` (stereo partly drawn) [Compound 349, benzyl ((8S,11S)-4^4-methyl-7,10,14-trioxo-8-phenethyl-3-oxa-6,9-diaza-1(3,1)-pyrrolidina-4(1,3)-benzenacyclotetradecaphane-11-yl)carbamate], the IC50 is below 100 nM in test [1], below 100 nM in test [2], 100 to 500 nM in test [3] and 100 to 500 nM in test [4] (setting [5]).

As for `Cc1ccc2cc1CNC(=O)C(c1cnn(C)c1)NC(=O)[C@@H](NC(=O)[C@@H](C)c1ccccc1)CC(=O)N1CCCC(CCO2)C1` (stereo partly drawn) [Compound 359, (2S)-N-((12S)-5^4-methyl-9-(1-methyl-1H-pyrazol-4-yl)-8,11,14-trioxo-4-oxa-7,10-diaza-1(3,1)-piperidina-5(1,3)-benzenacyclotetradecaphane-12-yl)-2-phenylpropanamide], the IC50 in test [1], in test [2], in test [3] and in test [4] (setting [5]) was below 100 nM throughout.

Consider `Cc1ccc2cc1CNC(=O)C(c1cnn(C)c1)NC(=O)CCCCC(=O)N1CCCC(CCO2)C1` (centres unmarked) [Compound 356, 5^4-methyl-9-(1-methyl-1H-pyrazol-4-yl)-4-oxa-7,10-diaza-1(3,1)-piperidina-5(1,3)-benzenacyclohexadecaphane-8,11,16-trione], for which the IC50 in test [1] was 500 to 1000 nM; in test [2] it was below 100 nM; in test [3] it was 500 to 1000 nM; in test [4] (setting [5]), 500 to 1000 nM.

Turning to `Cc1ccc2cc1CNC(=O)C(CCc1cnc3nccnc3c1)NC(=O)[C@@H](NC(=O)OCc1ccccc1)CC(=O)N1CCCC(CCO2)C1` (stereo partly drawn) [Compound 505, benzyl ((12S)-5^4-methyl-8,11,14-trioxo-9-(2-(pyrido[2,3-b]pyrazin-7-yl)ethyl)-4-oxa-7,10-diaza-1(3,1)-piperidina-5(1,3)-benzenacyclotetradecaphane-12-yl)carbamate], the IC50 in test [1], in test [2], in test [3] and in test [4] (setting [5]) was below 100 nM throughout.

In the case of `COc1cccc(CC(=O)N[C@H]2CC(=O)N3CCCC(CCOc4ccc(C)c(c4)CNC(=O)C(c4cnn(C)c4)NC2=O)C3)c1` (stereo partly drawn) [Compound 362, 2-(3-methoxyphenyl)-N-((12S)-5^4-methyl-9-(1-methyl-1H-pyrazol-4-yl)-8,11,14-trioxo-4-oxa-7,10-diaza-1(3,1)-piperidina-5(1,3)-benzenacyclotetradecaphane-12-yl)acetamide], the IC50 in test [1], in test [2], in test [3] and in test [4] (setting [5]) was below 100 nM each time.

In the case of `CC(=O)N[C@H]1CC(=O)N2CCCC(CCOc3ccc(C)c(c3)CNC(=O)C(c3cc(C)sn3)NC1=O)C2` (stereo partly drawn) [Compound 556, N-((12S)-5^4-methyl-9-(5-methylisothiazol-3-yl)-8,11,14-trioxo-4-oxa-7,10-diaza-1(3,1)-piperidina-5(1,3)-benzenacyclotetradecaphane-12-yl)acetamide], the IC50 in test [1], in test [2], in test [3] and in test [4] (setting [5]) was below 100 nM each time.

On to `Cc1ccc2cc1CNC(=O)[C@H](CCc1ccccc1)NC(=O)[C@@H](NC(=O)Cc1nc(-c3ccncc3)n[nH]1)CC(=O)N1CCCC(CCO2)C1` (stereo partly drawn) [Compound 329, N-((9S,12S)-5^4-methyl-8,11,14-trioxo-9-phenethyl-4-oxa-7,10-diaza-1(3,1)-piperidina-5(1,3)-benzenacyclotetradecaphane-12-yl)-2-(3-(pyridin-4-yl)-1H-1,2,4-triazol-5-yl)acetamide], for which the IC50 in test [1] was below 100 nM; in test [2], below 100 nM; in test [3], below 100 nM; in test [4] (setting [5]), 100 to 500 nM.

For the compound `CC(=O)N[C@H]1CC(=O)N2CCCC(CCOc3ccc(C)c(c3)CNC(=O)C(c3ccc4ncccc4c3)NC1=O)C2` (stereo partly drawn) [Compound 554, N-((12S)-5^4-methyl-8,11,14-trioxo-9-(quinolin-6-yl)-4-oxa-7,10-diaza-1(3,1)-piperidina-5(1,3)-benzenacyclotetradecaphane-12-yl)acetamide], the IC50 in test [1] was below 100 nM; in test [2] it was below 100 nM; in test [3], below 100 nM; in test [4] (setting [5]), 100 to 500 nM.

`CC(=O)N[C@H]1CC(=O)N2CCCC(CCOc3cccc(c3)CNC(=O)[C@H](CCc3ccccc3)NC1=O)C2` (stereo partly drawn) [Compound 364, N-((9S,12S)-8,11,14-trioxo-9-phenethyl-4-oxa-7,10-diaza-1(3,1)-piperidina-5(1,3)-benzenacyclotetradecaphane-12-yl)acetamide]: the IC50 in test [1], in test [2], in test [3] and in test [4] (setting [5]) was below 100 nM each time.

Regarding `Cc1ccc2cc1CNC(=O)[C@H](CCc1ccccc1)NC(=O)[C@@H](NC(=O)Cc1ccccc1F)CC(=O)N1CCCC(CCO2)C1` (stereo partly drawn) [Compound 333, 2-(2-fluorophenyl)-N-((9S,12S)-5^4-methyl-8,11,14-trioxo-9-phenethyl-4-oxa-7,10-diaza-1(3,1)-piperidina-5(1,3)-benzenacyclotetradecaphane-12-yl)acetamide], the IC50 in test [1], in test [2], in test [3] and in test [4] (setting [5]) was below 100 nM each time.

As for `Cc1ccc2cc1CNC(=O)[C@H](CCc1ccccc1)NC(=O)[C@@H](NC(=O)Cc1cc(Cl)c(N)c(Cl)c1)CC(=O)N1CCCC(CCO2)C1` (stereo partly drawn) [Compound 320, 2-(4-amino-3,5-dichlorophenyl)-N-((9S,12S)-5^4-methyl-8,11,14-trioxo-9-phenethyl-4-oxa-7,10-diaza-1(3,1)-piperidina-5(1,3)-benzenacyclotetradecaphane-12-yl)acetamide], the IC50 in test [1], in test [2], in test [3] and in test [4] (setting [5]) was below 100 nM throughout.

As to `Cc1ccc2cc1CNC(=O)[C@H](CCc1ccccc1)NC(=O)[C@@H](Nc1ncccn1)CC(=O)N1CCCC(CCO2)C1` (stereo partly drawn) [Compound 34, (9S,12S)-5^4-methyl-9-phenethyl-12-(pyrimidin-2-ylamino)-4-oxa-7,10-diaza-1(3,1)], the IC50 is below 100 nM in test [1]; below 100 nM in test [2]; below 100 nM in test [3]; below 100 nM in test [4] (A549, read-out: PGLo A549 [nM]).
